From publication PMC12638379, “An innovative approach to development of new pyrazolylquinolin-2-one hybrids as dual EGFR and BRAF^V600E inhibitors” (Molecular Diversity, 2025)
Read-outs that look alike come from different tables or passages of the source.

Tested on: NCI 60 cancer cell lines
Assay: NCI anticancer screening over a panel of 60 cancer cells, single concentration 10 µM
Format: cell-based, human
Details: Homo sapiens, read-out: % Growth Inhibition (GI %)
In short: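 Run under the NCI Compound Evaluation Branch protocol, each compound was tested once at 10 µM. The panel comprised 60 cancer cell lines of diverse tissue origin, including leukemia, lung, colon, CNS, renal, ovarian, breast and prostate.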

C/C(=N\Nc1ccc(S(N)(=O)=O)cc1)c1cnn(-c2cc(=O)[nH]c3ccc(C)cc23)c1C [Compound 4b, (E)-4-(2-(1-(5-methyl-1-(6-methyl-2-oxo-1,2-dihydroquinolin-4-yl)-1H-pyrazol-4-yl)ethylidene)hydrazineyl)benzenesulfonamide]
inhibition at 10 µM (A498, Renal cancer A498, 10 μM): 5.79%
inhibition at 10 µM (A549, Non-small cell lung cancer A549/ATCC, 10 μM): < 5%
inhibition at 10 µM (ACHN, Renal cancer ACHN, 10 μM): < 5%
inhibition at 10 µM (BT-549, Breast cancer BT-549, 10 μM): < 5%
inhibition at 10 µM (CAKI-1, Renal cancer CAKI-1, 10 μM): 5.35%
inhibition at 10 µM (CCRF-CEM, Leukemia CCRF-CEM, 10 μM): 16%
inhibition at 10 µM (COLO 205, Colon cancer COLO 205, 10 μM): < 5%
inhibition at 10 µM (DU-145, Prostate cancer DU-145, 10 μM): < 5%
inhibition at 10 µM (EKVX, Non-small cell lung cancer EKVX, 10 μM): < 5%
inhibition at 10 µM (HCC 2998, Colon cancer HCC-2998, 10 μM): < 5%
inhibition at 10 µM (HCT-15, Colon cancer HCT-15, 10 μM): < 5%
inhibition at 10 µM (HCT-116, Colon cancer HCT-116, 10 μM): < 5%
inhibition at 10 µM (HOP-62, Non-small cell lung cancer HOP-62, 10 μM): 9.34%
inhibition at 10 µM (HOP-92, Non-small cell lung cancer HOP-92, 10 μM): < 5%
inhibition at 10 µM (HT-29, Colon cancer HT29, 10 μM): < 5%
inhibition at 10 µM (Hs-578T, Breast cancer HS 578T, 10 μM): 14.4%
inhibition at 10 µM (IGROV-1, Ovarian cancer IGROV1, 10 μM): < 5%
inhibition at 10 µM (K562, Leukemia K-562, 10 μM): 9.72%
inhibition at 10 µM (LOX IMVI, Melanoma LOX IMVI, 10 μM): 13%
inhibition at 10 µM (Leukemia SR, 10 μM): 40.3%
inhibition at 10 µM (MCF7, Breast cancer MCF7, 10 μM): 16.1%
inhibition at 10 µM (MDA-MB-231, Breast cancer MDA-MB-231/ATCC, 10 μM): 18.8%
inhibition at 10 µM (MDA-MB-435, Melanoma MDA-MB-435, 10 μM): 8.01%
inhibition at 10 µM (MDA-MB-468, Breast cancer MDA-MB-468, 10 μM): 41.7%
inhibition at 10 µM (MOLT-4, Leukemia MOLT-4, 10 μM): 16.1%
inhibition at 10 µM (Melanoma M14, 10 μM): < 5%
inhibition at 10 µM (Melanoma MALM-3M, 10 μM): 16.4%
inhibition at 10 µM (NCI-H23, Non-small cell lung cancer NCI-H23, 10 μM): < 5%
inhibition at 10 µM (NCI-H226, Non-small cell lung cancer NCI-H226, 10 μM): 15.9%
inhibition at 10 µM (NCI-H322M, Non-small cell lung cancer NCI-H322M, 10 μM): < 5%
inhibition at 10 µM (NCI-H460, Non-small cell lung cancer NCI-H460, 10 μM): < 5%
inhibition at 10 µM (NCI-H522, Non-small cell lung cancer NCI-H522, 10 μM): 27.9%
inhibition at 10 µM (NCI/ADR-RES, Ovarian cancer NCI/ADR-RES, 10 μM): < 5%
inhibition at 10 µM (OVCAR-4, Ovarian cancer OVCAR-4, 10 μM): 11.4%
inhibition at 10 µM (OVCAR-5, Ovarian cancer OVCAR-5, 10 μM): < 5%
inhibition at 10 µM (Prostate cancer PC-3, 10 μM): 9.56%
inhibition at 10 µM (RPMI-8226, Leukemia RPMI-8226, 10 μM): < 5%
inhibition at 10 µM (RXF 393, Renal cancer RXF 393, 10 μM): 9.76%
inhibition at 10 µM (SF-268, CNS Cancer SF-268, 10 μM): 13.3%
inhibition at 10 µM (SF-295, CNS Cancer SF-295, 10 μM): 11.1%
inhibition at 10 µM (SF-539, CNS Cancer SF-539, 10 μM): 16.9%
inhibition at 10 µM (SK-MEL-2, Melanoma SK-MEL-2, 10 μM): 7.35%
inhibition at 10 µM (SK-MEL-5, Melanoma SK-MEL-5, 10 μM): 9.87%
inhibition at 10 µM (SK-MEL-28, Melanoma SK-MEL-28, 10 μM): < 5%
inhibition at 10 µM (SK-OV-3, Ovarian cancer SK-OV-3, 10 μM): < 5%
inhibition at 10 µM (SN12C, Renal cancer SN12C, 10 μM): 5.72%
inhibition at 10 µM (SNB-19, CNS Cancer SNB-19, 10 μM): 12.6%
inhibition at 10 µM (SNB-75, CNS Cancer SNB-75, 10 μM): 12.2%
inhibition at 10 µM (SW-620, Colon cancer SW-620, 10 μM): < 5%
inhibition at 10 µM (T47D, Breast cancer T-47D, 10 μM): 27.3%
inhibition at 10 µM (TK-10, Renal cancer TK-10, 10 μM): < 5%
inhibition at 10 µM (U-251, CNS Cancer U251, 10 μM): 13%
inhibition at 10 µM (UACC-62, Melanoma UACC-62, 10 μM): 19.2%
inhibition at 10 µM (UACC-257, Melanoma UACC-257, 10 μM): < 5%
inhibition at 10 µM (UO-31, Renal cancer UO-31, 10 μM): 11.7%
